This assay relates to PC-3 cell proliferation. The assay is described as follows: Cell proliferation assay (WST-1), PC-3. The format is cell-based. The settings on record: Homo sapiens; PC-3 cells, WST-1 readout; read-out: inhibitory activity against PC-3 cell proliferation (IC50 range). The procedure:
A panel of cancer cell lines was obtained from the DCTP Tumor Repository, National Cancer Institute (Frederick, Md.) or ATCC (Rockville, Md.). Cell cultures were maintained in Hyclone RPMI 1640 medium (Logan, Utah) supplemented with 10% fetal bovine serum and 20 mM HEPES buffer, final pH 7.2, at 37° C. with a 5% CO2 atmosphere. Cultures were maintained at sub-confluent densities. Human umbilical vein endothelial cells (HUVEC) were purchased from Clonetics, a division of Cambrex (Walkersville, Md.). Cultures were established from cryopreserved stocks using Clonetics EGM-2 medium supplemented with 20 mM HEPES, final pH 7.2, at 37° C. with a 5% CO2 atmosphere.
For proliferation assays, cells were seeded with the appropriate medium into 96 well plates at 1,000-2,500 cells per well, depending on the cell line, and were incubated overnight. The following day, test compound, DMSO solution (negative control), or Actinomycin D (positive control) was added to the appropriate wells as 10× concentrated stocks prepared in phosphate buffered saline. The cell plates were then incubated for an additional 2-5 days, depending on the cell line, to allow proliferation to occur. To measure cell density, 50 μL of WST-1 solution (Roche Applied Science, Ind.) diluted 1:5 in phosphate buffered saline was added to each well, and the cells incubated for an additional 1-5 hrs., again depending on the cell line. Optical density was determined for each well at […] using a Tecan GeniosPro plate reader (RTP, NC). The percentage of cell growth was determined by comparing the cell growth in the presence of test compounds to the cells treated with DMSO vehicle (control, 100% growth) and cells treated with Actinomycin D (10 μM, 0% growth). […]

Where only a bound is given, the exact number is not on record here.

Consider `COCCNc1cc(-n2cc(C)c3c2CC(C)(C)CC3=O)ccc1C(N)=O` [Compound 5, 2-(2-Methoxy-ethylamino)-4-(3,6,6-trimethyl-4-oxo-4,5,6,7-tetrahydro-indol-1-yl)-benzamide], for which the IC50 lay within 500 to 5000 nM.

`COc1cc(Nc2cc(-n3nc(C)c4c3CC(C)(C)CC4=O)ccc2C(N)=O)cc(OC)c1OC` [Compound 19, 4-(6,6-Dimethyl-4-oxo-3-methyl-4,5,6,7-tetrahydro-indazol-1-yl)-2-(3,4,5-trimethoxyanilino)-benzamide]: the IC50 is less than 500 nM.

In the case of `COc1ccc(Nc2cc(-n3nc(C)c4c3CC(C)(C)CC4=O)ccc2C(N)=O)cc1OCCN(C)C` [Compound 27, 2-[3-(2-Dimethylamino-ethoxy)-4-methoxy-phenylamino]-4-(3,6,6-trimethyl-4-oxo-4,5,6,7-tetrahydro-indazol-1-yl)-benzamide], the IC50 is less than 500 nM.

Consider `CC1(C)CC(=O)c2c(C(F)(F)F)nn(-c3ccc(C(N)=O)c(NC4CCSCC4)c3)c2C1` [Compound 31, 4-(6,6-Dimethyl-4-oxo-3-trifluoromethyl-4,5,6,7-tetrahydro-indazol-1-yl)-2-(tetrahydro-thiopyran-4-ylamino)-benzamide], for which the IC50 was less than 500 nM.

`C#Cc1cccc(Nc2cc(-n3c(C)cc4c3CC(C)(C)CC4=O)ccc2C(N)=O)c1` [Compound 72, 2-[(3-ethynylphenyl)amino]-4-(2,6,6-trimethyl-4-oxo-4,5,6,7-tetrahydro-1H-indol-1-yl)benzamide]: the IC50 lay within 500 to 5000 nM.

For `Cc1cc2c(n1-c1ccc(C(N)=O)c(Nc3ccccc3)c1)CCCC2=O` [Compound 74, 2-anilino-4-(2-methyl-4-oxo-4,5,6,7-tetrahydro-1H-indol-1-yl)benzamide], the IC50 was 5000 to 50000 nM.

Turning to `COc1cc(Nc2cc(-n3c(C)c(Cl)c4c3CC(C)(C)CC4=O)ccc2C(N)=O)cc(OC)c1OC` [Compound 81, 4-(3-chloro-2,6,6-trimethyl-4-oxo-4,5,6,7-tetrahydro-1H-indol-1-yl)-2-[(3,4,5-trimethoxyphenyl)amino]benzamide], the IC50 was less than 500 nM.

As for `Cc1cc2c(n1-c1ccc(C(N)=O)c(Nc3ccc(O)cc3)c1)CC(C)(C)CC2=O` [Compound 82, 2-[(4-hydroxyphenyl)amino]-4-(2,6,6-trimethyl-4-oxo-4,5,6,7-tetrahydro-1H-indol-1-yl)benzamide], the IC50 lay within 500 to 5000 nM.

In the case of `Cc1cc(Nc2cc(-n3c(C)cc4c3CC(C)(C)CC4=O)ccc2C(N)=O)no1` [Compound 84, 2-[(5-methylisoxazol-3-yl)amino]-4-(2,6,6-trimethyl-4-oxo-4,5,6,7-tetrahydro-1H-indol-1-yl)benzamide], the IC50 fell in the range of 500 to 5000 nM.

In the case of `COc1ccc(Nc2cc(-n3c(C)cc4c3CC(C)(C)CC4=O)ccc2C(N)=O)cc1OCCCN(C)C` [Compound 93, 2-({3-[3-(dimethylamino)propoxy]-4-methoxyphenyl}amino)-4-(2,6,6-trimethyl-4-oxo-4,5,6,7-tetrahydro-1H-indol-1-yl)benzamide], the IC50 is 500 to 5000 nM.

Turning to `Cc1cn(-c2ccc(C(N)=O)c(Nc3ccncc3)c2)c2c1C(=O)CC(C)(C)C2` [Compound 97, 2-(pyridin-4-ylamino)-4-(3,6,6-trimethyl-4-oxo-4,5,6,7-tetrahydro-1H-indol-1-yl)benzamide], the IC50 was less than 500 nM.

For `Cc1nn(-c2ccc(C(N)=O)c(NCC3CC3)c2)c2c1C(=O)CC(C)(C)C2` [Compound 100, 2-[(cyclopropylmethyl)amino]-4-(3,6,6-trimethyl-4-oxo-4,5,6,7-tetrahydro-1H-indazol-1-yl)benzamide], the IC50 was less than 500 nM.

Regarding `COCC(=O)Nc1cc(-n2cc(C)c3c2CC(C)(C)CC3=O)ccc1C(N)=O` [Compound 101, 2-[(methoxyacetyl)amino]-4-(3,6,6-trimethyl-4-oxo-4,5,6,7-tetrahydro-1H-indol-1-yl)benzamide], the IC50 lay in the range of 500 to 5000 nM.

For `COc1ccc(Nc2cc(-n3cc(C)c4c3CC(C)(C)CC4=O)ccc2C(N)=O)cc1OCCN(C)C` [Compound 104, 2-({3-[2-(dimethylamino)ethoxy]-4-methoxyphenyl}amino)-4-(3,6,6-trimethyl-4-oxo-4,5,6,7-tetrahydro-1H-indol-1-yl)benzamide], the IC50 was less than 500 nM.

On to `Cc1nn(-c2ccc(C(N)=O)c(N[C@H](C)c3ccccc3)c2)c2c1C(=O)CC(C)(C)C2` [Compound 106, 2-{[(1R)-1-phenylethyl]amino}-4-(3,6,6-trimethyl-4-oxo-4,5,6,7-tetrahydro-1H-indazol-1-yl)benzamide], for which the IC50 is 500 to 5000 nM.

As for `Cc1cn(-c2ccc(C(N)=O)c(Nc3ccnc(OCCN(C)C)c3)c2)c2c1C(=O)CC(C)(C)C2` [Compound 108, 2-({2-[2-(dimethylamino)ethoxy]pyridin-4-yl}amino)-4-(3,6,6-trimethyl-4-oxo-4,5,6,7-tetrahydro-1H-indol-1-yl)benzamide], the IC50 was less than 500 nM.

On to `CC1(C)CC(=O)c2c(-c3ccccc3)cn(-c3ccc(C(N)=O)cc3)c2C1` [Compound 110, 4-(6,6-dimethyl-4-oxo-3-phenyl-4,5,6,7-tetrahydro-1H-indol-1-yl)benzamide], for which the IC50 lay within 5000 to 50000 nM.

As for `Cc1cn(-c2ccc(C(N)=O)c(NCCNC(=O)CO)c2)c2c1C(=O)CC(C)(C)C2` [Compound 112, 2-{[2-(glycoloylamino)ethyl]amino}-4-(3,6,6-trimethyl-4-oxo-4,5,6,7-tetrahydro-1H-indol-1-yl)benzamide], the IC50 was in the range of 5000 to 50000 nM.

As to `Cc1nn(-c2ccc(C(N)=O)c(NCCS(C)(=O)=O)c2)c2c1C(=O)CC(C)(C)C2` [Compound 113, 2-{[2-(methylsulfonyl)ethyl]amino}-4-(3,6,6-trimethyl-4-oxo-4,5,6,7-tetrahydro-1H-indazol-1-yl)benzamide], the IC50 is less than 500 nM.

As to `COc1ccc(Nc2cc(-n3nc(C)c4c3CC(C)(C)CC4=O)ccc2C(N)=O)cc1` [Compound 114, 2-[(4-methoxyphenyl)amino]-4-(3,6,6-trimethyl-4-oxo-4,5,6,7-tetrahydro-1H-indazol-1-yl)benzamide], the IC50 was less than 500 nM.

With `CC1(C)CC(=O)c2c(C(F)F)nn(-c3ccc(C(N)=O)c(NC4CC=CC4)c3)c2C1` [Compound 116, 2-(cyclopent-3-en-1-ylamino)-4-[3-(difluoromethyl)-6,6-dimethyl-4-oxo-4,5,6,7-tetrahydro-1H-indazol-1-yl]benzamide], the IC50 is less than 500 nM.

Turning to `Cc1nn(-c2ccc(C(N)=O)c(Nc3cccc([S+](C)[O-])c3)c2)c2c1C(=O)CC(C)(C)C2` (centres unmarked) [Compound 123, 2-{[3-(methylsulfinyl)phenyl]amino}-4-(3,6,6-trimethyl-4-oxo-4,5,6,7-tetrahydro-1H-indazol-1-yl)benzamide], the IC50 is 500 to 5000 nM.

Take `CC1(C)CC(=O)c2c(C(F)(F)F)nn(-c3ccc(C(N)=O)c(NC4CCN(S(C)(=O)=O)CC4)c3)c2C1` [Compound 124, 4-[6,6-dimethyl-4-oxo-3-(trifluoromethyl)-4,5,6,7-tetrahydro-1H-indazol-1-yl]-2-{[1-(methylsulfonyl)piperidin-4-yl]amino}benzamide]: the IC50 was less than 500 nM.

As to `Cc1nn(-c2ccc(C(N)=O)c(NC3CCN(C(=O)CCN4CCOCC4)CC3)c2)c2c1C(=O)CC(C)(C)C2` [Compound 127, 2-{[1-(3-morpholin-4-ylpropanoyl)piperidin-4-yl]amino}-4-(3,6,6-trimethyl-4-oxo-4,5,6,7-tetrahydro-1H-indazol-1-yl)benzamide], the IC50 was less than 500 nM.

On to `Cc1nn(-c2ccc(C(N)=O)c(NC3CCN(C(=O)CN)CC3)c2)c2c1C(=O)CC(C)(C)C2` [Compound 129, 2-[(1-glycylpiperidin-4-yl)amino]-4-(3,6,6-trimethyl-4-oxo-4,5,6,7-tetrahydro-1H-indazol-1-yl)benzamide], for which the IC50 is 500 to 5000 nM.

As to `CN(C)S(=O)(=O)CCNc1cc(-n2nc(C(F)(F)F)c3c2CC(C)(C)CC3=O)ccc1C(N)=O` [Compound 136, 2-({2-[(dimethylamino)sulfonyl]ethyl}amino)-4-[6,6-dimethyl-4-oxo-3-(trifluoromethyl)-4,5,6,7-tetrahydro-1H-indazol-1-yl]benzamide], the IC50 was in the range of 500 to 5000 nM.

These data come from patent US7928135B2, “Benzene, pyridine, and pyridazine derivatives” (Serenex, Inc., priority 2005, dated 2011).
